Patent US8759334B2, “Compounds useful for the treatment of metabolic and inflammatory diseases” (Galapagos NV, priority 2011, dated 2014)
pIC50: −log10 of the molar value.

Biological target: T1, GPR43 (Homo sapiens, UniProt O15552)
T1 construct: expressed in transfected cells
T1 sequence (O15552 1-330): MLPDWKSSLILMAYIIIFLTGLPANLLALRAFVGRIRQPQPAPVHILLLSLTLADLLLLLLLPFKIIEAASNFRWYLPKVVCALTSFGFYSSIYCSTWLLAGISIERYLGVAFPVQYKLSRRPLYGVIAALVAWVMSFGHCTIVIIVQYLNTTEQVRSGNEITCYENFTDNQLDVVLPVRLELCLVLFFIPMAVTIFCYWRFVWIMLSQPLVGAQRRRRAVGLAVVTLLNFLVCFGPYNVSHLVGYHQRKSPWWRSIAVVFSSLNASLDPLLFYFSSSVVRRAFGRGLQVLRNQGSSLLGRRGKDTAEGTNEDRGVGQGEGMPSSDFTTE
Experiment: Calcium mobilization assay with probenecid
Type: cell-based
Conditions: GPR43 stably expressing cells; triggered with sodium acetate at EC80; 2.5 mM probenecid; read-out: GPR43 assay with probenicid IC50
Protocol: The following assay can be used for determination of GPR43 activation. The assay measures intracellular calcium release induced by activation of GPR43. On day 1, GPR43 stably expressing cells were detached with mild trypsinization (Trypsin, 0.25% with EDTA 4Na, 5× diluted in PBS) centrifuged at 1000 rpm for 5 min and resuspended at 6.000 cells/25 […] medium (DMEM supplemented with 10% FBS, 10 μg/mL puromycin and 1% Pen/Strep). The cells were distributed in poly-D-lysine coated 384 well plates (black with clear bottom, 25 μL/well) and incubated overnight at 37° C. 10% CO2.
On day 2, 25 μL of a fluorescent Ca^2+ indicator (Calcium 4 assay; Molecular Devices) supplemented with 2.5 mM probenecid was added on top of the cells and incubated for 2 h at 37° C. Subsequently, compounds at increasing concentration (10 μL/well) were added to the plate and incubated for 15 min at 37° C.
To measure agonist activity of the compounds, compound was added to the well and the Ca^2+-flux was measured simultaneously to the […] of compound.

pIC50 | SMILES
6.30 to 7.00 | CC1(C(=O)N(CCC(=O)O)Cc2cccc(Cl)c2)CCN1C(=O)Cc1csc2ccccc12 (centres unmarked) [Compound 170, 3-[[1-(2-Benzo[b]thiophen-3-yl-acetyl)-2-methyl-azetidine-2-carbonyl]-(3-chloro-benzyl)-amino]-propionic acid]
6.00 to 6.30 | Cc1cc(C)cc(CC(=O)N2CCC2(C)C(=O)N(CCCC(=O)O)Cc2ccc(C(F)(F)F)cc2)c1 (centres unmarked) [Compound 159, 4-[{1-[2-(3,5-Dimethyl-phenyl)-acetyl]-2-methyl-azetidine-2-carbonyl}-(4-trifluoromethyl-benzyl)-amino]-butyric acid]
6.00 to 6.30 | CCOC(=O)CCCN(Cc1ccc(C(F)(F)F)cc1)C(=O)C1(C)CCN1C(=O)Cc1cc(C)cc(C)c1 (centres unmarked) [Compound 165, 4-[{1-[2-(3,5-Dimethyl-phenyl)-acetyl]-2-methyl-azetidine-2-carbonyl}-(4-trifluoromethyl-benzyl)-amino]-butyric acid ethyl ester]
6.00 to 6.30 | CCOC(=O)CCCN(Cc1cccc(Cl)c1)C(=O)C1(C)CCN1C(=O)Cc1csc2ccccc12 (centres unmarked) [Compound 147, 4-[[1-(2-Benzo[b]thiophen-3-yl-acetyl)-2-methyl-azetidine-2-carbonyl]-(3-chloro-benzyl)-amino]-butyric acid ethyl ester]
7.00 to 11.00 | Cc1cc(C)cc(OC(=O)N2CCC2(C)C(=O)N(CCCC(=O)O)Cc2ccc(Cl)cc2)c1 (centres unmarked) [Compound 196, 2-[(3-Carboxy-propyl)-(4-chloro-benzyl)-carbamoyl]-2-methyl-azetidine-1-carboxylic acid 3,5-dimethyl-phenyl ester]
6.00 to 6.30 | Cc1cc(C)cc(CC(=O)N2CCC2(C)C(=O)N(CCCC(=O)N2CCN(C)CC2)Cc2ccc(Cl)cc2)c1 (centres unmarked) [Compound 124, 1-[2-(3,5-Dimethyl-phenyl)-acetyl]-2-methyl-azetidine-2-carboxylic acid (4-chloro-benzyl)-[4-(4-methyl-piperazin-1-yl)-4-oxo-butyl]-amide]
< 6.00 | Cc1cc(C)cc(CC(=O)N2CCC2(C)C(=O)N(CCCC(=O)O)Cc2cccc(Cl)c2)c1 (centres unmarked) [Compound 161, 4-((3-Chloro-benzyl)-{1-[2-(3,5-dimethyl-phenyl)-acetyl]-2-methyl-azetidine-2-carbonyl}-amino)-butyric acid]
< 6.00 | Cc1ccc(C)c(CC(=O)N2CCC2(C)C(=O)N(C)Cc2ccc(Cl)cc2)c1 (centres unmarked) [Compound 41, 1-[2-(2,5-Dimethyl-phenyl)-acetyl]-2-methyl-azetidine-2-carboxylic acid (4-chloro-benzyl)-methyl-amide]
< 6.00 | Cc1cc(C)cc(CC(=O)N2CCC2(C)C(=O)N(C)Cc2cccc(Br)c2)c1 (centres unmarked) [Compound 39, 1-[2-(3,5-Dimethyl-phenyl)-acetyl]-2-methyl-azetidine-2-carboxylic acid (3-bromo-benzyl)-methyl-amide]
< 6.00 | CN(Cc1ccc(Cl)cc1)C(=O)C1(C)CCN1C(=O)c1ccc2occc2c1 (centres unmarked) [Compound 121, 1-(benzofuran-5-carbonyl)-N-(4-chlorobenzyl)-N,2-dimethylazetidine-2-carboxamide]
< 6.00 | Cc1ccc(OC(=O)N2CCC2(C)C(=O)N(CCCC(=O)O)Cc2ccc(Cl)cc2)c(C)c1 (centres unmarked) [Compound 213, 4-(N-(4-chlorobenzyl)-1-((2,4-dimethylphenoxy)carbonyl)-2-methylazetidine-2-carboxamido)butanoic acid]
6.00 to 6.30 | Cc1cc(C)cc(CC(=O)N2CCC2(C)C(=O)N(CCCC(=O)O)Cc2ccc3ccoc3c2)c1 (centres unmarked) [Compound 162, 4-(Benzofuran-6-ylmethyl-{1-[2-(3,5-dimethyl-phenyl)-acetyl]-2-methyl-azetidine-2-carbonyl}-amino)-butyric acid]

Further lines, the compound ahead of its results:

SMILES | pIC50
CCCC1(C(=O)N(CCCC(=O)O)Cc2cccc(Cl)c2)CCN1C(=O)c1csc2ccccc12 (centres unmarked) [Compound 204, 4-[[1-(Benzo[b]thiophene-3-carbonyl)-2-propyl-azetidine-2-carbonyl]-(3-chloro-benzyl)-amino]-butyric acid] | 7.00 to 11.00
CC1(C(=O)N(CCCC(=O)O)Cc2ccc(C(F)(F)F)cc2)CCN1C(=O)c1csc2ccccc12 (centres unmarked) [Compound 145, 4-[[1-(Benzo[b]thiophene-3-carbonyl)-2-methyl-azetidine-2-carbonyl]-(4-trifluoromethyl-benzyl)-amino]-butyric acid] | 6.30 to 7.00
CC1(C(=O)N(CCCC(=O)O)Cc2ccn3ccnc3c2)CCN1C(=O)Cc1csc2ccccc12 (centres unmarked) [Compound 177, 4-{[1-(2-Benzo[b]thiophen-3-yl-acetyl)-2-methyl-azetidine-2-carbonyl]-imidazo[1,2-a]pyridin-7-ylmethyl-amino}-butyric acid] | < 6.00
CCC1(C(=O)N(CCCS(N)(=O)=O)Cc2ccc(Cl)cc2)CCN1C(=O)c1csc2ccccc12 (centres unmarked) [Compound 216, 1-(benzo[b]thiophene-3-carbonyl)-N-(4-chlorobenzyl)-2-ethyl-N-(3-sulfamoylpropyl)azetidine-2-carboxamide] | 6.30 to 7.00
CC1(C(=O)N(CCCC(=O)O)Cc2ccc3cn[nH]c3c2)CCN1C(=O)Cc1coc2ccccc12 (centres unmarked) [Compound 156, 4-[[1-(2-Benzofuran-3-yl-acetyl)-2-methyl-azetidine-2-carbonyl]-(1H-indazol-6-ylmethyl)-amino]-butyric acid] | 6.30 to 7.00
CC1(C(=O)N(CCCC(=O)O)Cc2ccc(Cl)cc2)CCN1C(=O)n1ccc2ccccc21 (centres unmarked) [Compound 237, 4-(N-(4-chlorobenzyl)-1-(1H-indole-1-carbonyl)-2-methylazetidine-2-carboxamido)butanoic acid] | < 6.00
Cc1ccccc1OC(=O)N1CCC1(C)C(=O)N(CCCC(=O)O)Cc1ccc(Cl)cc1 (centres unmarked) [Compound 205, 2-[(3-Carboxy-propyl)-(4-chloro-benzyl)-carbamoyl]-2-methyl-azetidine-1-carboxylic acid o-tolyl ester] | < 6.00
CC(C)C1(C(=O)N(CCCC(=O)O)Cc2cccc(Cl)c2)CCN1C(=O)c1csc2ccccc12 (centres unmarked) [Compound 203, 4-[[1-(Benzo[b]thiophene-3-carbonyl)-2-isopropyl-azetidine-2-carbonyl]-(3-chloro-benzyl)-amino]-butyric acid] | 7.00 to 11.00
CC1(C(=O)N(CCCS(N)(=O)=O)Cc2ccc(Cl)cc2)CCN1C(=O)Cc1csc2ccccc12 (centres unmarked) [Compound 181, 1-(2-Benzo[b]thiophen-3-yl-acetyl)-2-methyl-azetidine-2-carboxylic acid (4-chloro-benzyl)-(3-sulfamoyl-propyl)-amide] | 7.00 to 11.00
CC1(C(=O)N(CCC(=O)O)Cc2ccc3cn[nH]c3c2)CCN1C(=O)Cc1csc2ccccc12 (centres unmarked) [Compound 176, 3-[[1-(2-Benzo[b]thiophen-3-yl-acetyl)-2-methyl-azetidine-2-carbonyl]-(1H-indazol-6-ylmethyl)-amino]-propionic acid] | 6.30 to 7.00
CC1(C(=O)N(CCCC(=O)N2CCOCC2)Cc2ccc(Cl)cc2)CCN1C(=O)Cc1coc2ccccc12 (centres unmarked) [Compound 140, 1-(2-Benzofuran-3-yl-acetyl)-2-methyl-azetidine-2-carboxylic acid (4-chloro-benzyl)-(4-morpholin-4-yl-4-oxo-butyl)-amide] | < 6.00
O=C(O)CCCN(Cc1cccc(Cl)c1)C(=O)C1(Cc2ccc(F)cc2)CCN1C(=O)c1csc2ccccc12 (centres unmarked) [Compound 219, 4-(1-(benzo[b]thiophene-3-carbonyl)-N-(3-chlorobenzyl)-2-(4-fluorobenzyl)azetidine-2-carboxamido)butanoic acid] | 6.30 to 7.00
C[C@H](c1ccc(Cl)cc1)N(CCCC(=O)O)C(=O)[C@@]1(C)CCN1C(=O)c1csc2ccccc12 [Compound 197, 4-{[(R)-1-(Benzo[b]thiophene-3-carbonyl)-2-methyl-azetidine-2-carbonyl]-[(R)-1-(4-chloro-phenyl)-ethyl]-amino}-butyric acid] | 6.00 to 6.30
O=C(O)CCCN(Cc1cccc(Cl)c1)C(=O)C1(Cc2ccccc2)CCN1C(=O)c1csc2ccccc12 (centres unmarked) [Compound 199, 4-[[1-(Benzo[b]thiophene-3-carbonyl)-2-benzyl-azetidine-2-carbonyl]-(3-chloro-benzyl)-amino]-butyric acid] | 6.30 to 7.00
CNS(=O)(=O)CCN(Cc1ccc(Cl)cc1)C(=O)C1(C)CCN1C(=O)c1csc2ccccc12 (centres unmarked) [Compound 193, 1-(Benzo[b]thiophene-3-carbonyl)-2-methyl-azetidine-2-carboxylic acid (4-chloro-benzyl)-(2-methylsulfamoyl-ethyl)-amide] | 6.30 to 7.00
CC1(C(=O)N(CCCC(=O)O)Cc2ccc(Cl)cc2)CCN1C(=O)c1ccc2sccc2c1 (centres unmarked) [Compound 135, 4-[[1-(Benzo[b]thiophene-5-carbonyl)-2-methyl-azetidine-2-carbonyl]-(4-chloro-benzyl)-amino]-butyric acid] | 6.00 to 6.30
Cc1cccc(CC2(C(=O)N(CCCC(=O)O)Cc3cccc(Cl)c3)CCN2C(=O)c2csc3ccccc23)c1 (centres unmarked) [Compound 220, 4-(1-(benzo[b]thiophene-3-carbonyl)-N-(3-chlorobenzyl)-2-(3-methylbenzyl)azetidine-2-carboxamido)butanoic acid] | 6.00 to 6.30
